# Experimental data as given in patent publication US12059472B2 (Bayer Aktiengesellschaft, priority 2016, dated 2024).
# Entries after “also recorded” stand apart in the source; their conditions may differ. Structures can show the parent of a compound that is named as a salt.
# How the values were obtained:
# [1] = target: human kinesin spindle protein KSP/Eg5 (Homo sapiens (Human), UniProt P52732); test: Inhibition of the kinesin spindle protein KSP/Eg5 (ATPase, malachite green); assay type: biochemical; conditions: Table 2; active metabolites; 10 nM KSP motor domain, 500 μM ATP
# Chain of human kinesin spindle protein KSP/Eg5 (P52732 18-359): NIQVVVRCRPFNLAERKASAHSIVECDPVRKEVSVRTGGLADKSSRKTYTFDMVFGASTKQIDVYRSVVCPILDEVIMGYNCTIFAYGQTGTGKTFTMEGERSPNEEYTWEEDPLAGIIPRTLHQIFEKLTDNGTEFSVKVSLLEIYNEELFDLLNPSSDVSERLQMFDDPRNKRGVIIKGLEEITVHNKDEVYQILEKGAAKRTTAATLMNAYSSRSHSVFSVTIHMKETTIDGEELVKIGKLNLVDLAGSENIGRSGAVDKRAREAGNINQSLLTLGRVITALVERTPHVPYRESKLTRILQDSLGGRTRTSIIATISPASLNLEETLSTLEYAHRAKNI
# Procedure: The motor domain of the human kinesin spindle protein KSP/Eg5 (tebu-bio/Cytoskeleton Inc, No. 027EG01-XL) was incubated in a concentration of 10 nM with microtubuli (bovine or porcine, tebu-bio/Cytoskeleton Inc) stabilized with 50 μg/ml taxol (Sigma No. T7191-5MG) for 5 min at RT in 15 mM PIPES, pH 6.8 (5 mM MgCl2 and 10 mM DTT, Sigma). […] Incubation was at RT for 2 h. ATPase activity was detected by detecting the inorganic phosphate formed using malachite green (Biomol). […] The positive controls used were monastrol (Sigma, M8515-1 mg) and ispinesib (AdooQ Bioscience A10486). The individual data of the dose-activity curve are eight-fold determinations. The IC50 values are means of two independent experiments.
# [2] = tested on: Caco-2 cells; test: Caco-2 flux assay for cell permeability; assay type: in vitro ADME
# Procedure: The cell permeability of a substance can be investigated by means of in vitro testing in a flux assay using Caco-2 cells [M. D. Troutman and D. R. Thakker, Pharm. […] For this purpose, the cells were cultured for 15-16 days on 24-well filter plates. For the determination of permeation, the respective test substance was applied in a HEPES buffer to the cells either apically (A) or basally (B) and incubated for 2 hours. After 0 hours and after 2 hours, samples were taken from the cis and trans compartments. The samples were separated by HPLC (Agilent 1200, Böblingen, Germany) using reverse phase columns. The HPLC system was coupled via a Turbo Ion Spray Interface to a Triple Quadropol mass spectrometer API 4000 (AB SCIEX Deutschland GmbH, Darmstadt, Germany).
# Of critical importance for toxophors which are released intracellularly is the permeability from B to A [Papp (B-A)] and the ratio of Papp (B-A) to Papp (A-B) (efflux ratio): the lower this permeability, the slower the active and passive transport processes of the substance through the monolayer of Caco-2 cells.
# [3] = target: legumain (Homo sapiens (Human), UniProt Q99538); test: Legumain assay (cleavage of prodrug); assay type: biochemical; conditions: pH 5.0; for half-life: human, recombinant human legumain, rh legumain 1 ng/μl, 50 mM MES, 250 mM NaCl, read-out: half-life of cleavage to the target compound in the legumain assay (converted)
# Chain of legumain (Q99538 18-323): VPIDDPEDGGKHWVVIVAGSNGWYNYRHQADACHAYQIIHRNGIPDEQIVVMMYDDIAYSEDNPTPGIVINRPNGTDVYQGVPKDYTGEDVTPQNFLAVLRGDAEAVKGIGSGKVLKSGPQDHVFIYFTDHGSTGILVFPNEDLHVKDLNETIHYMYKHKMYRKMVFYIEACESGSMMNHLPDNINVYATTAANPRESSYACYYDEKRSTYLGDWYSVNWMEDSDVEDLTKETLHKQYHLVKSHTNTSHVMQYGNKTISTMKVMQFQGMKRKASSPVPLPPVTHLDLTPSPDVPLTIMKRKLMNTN
# Procedure: The legumain assay was conducted with recombinant human enzyme. The rh legumain enzyme solution (catalogue #2199-CY, R&D Systems) was diluted to the desired concentration in 50 mM Na acetate buffer/100 mM NaCl, pH4.0 and preincubated at 37° C. for 2 h. rh legumain was then adjusted to a final concentration of 1 ng/μl in 50 mM MES buffer, 250 mM NaCl, pH 5.0. For every legumain-cleavable prodrug to be examined, a mixture was made up in a micro reaction vessel (0.5 ml, from Eppendorf). For this purpose, the substrate solution was adjusted to the desired concentration (double concentration) with 50 mM MES buffer, 250 mM NaCl, pH 5.0. For the kinetic measurement of the enzymatic reaction, 250 μl of the legumain solution were first initially charged and the enzyme reaction was started by adding 250 μl of the substrate solution (final concentration: single concentration). At different times, 50 μl samples were taken. This sample was admixed immediately with 100 μl of ice-cold methanol in order to stop the enzymatic reaction and then frozen at −20° C. The times selected for sampling were after 0.5 h, 1 h, 3 h and 24 h. The samples were then analysed by means of RP-HPLC analysis and by LC-MS analysis. The determination of the toxophore released enabled the determination of the half-life t1/2 of the enzymatic reaction (FIG. 1).
# [4] = Stability in rat liver lysosomes; assay type: in vitro ADME; conditions: rat liver lysosomal extract, 37° C.; for extent of cleavage in the lysosomal stability assay: within 24 h
# Procedure: To determine the lysosomal stability of compounds RM-A and RM-B, lysosomal enzymes were isolated from rat liver cells. Compounds A and B were each added to this lysosomal extract in order to examine stability under lysosomal conditions. The proteolytic enzyme legumain is expressed only in a very small amount, if any, in rat liver lysosomes (Chen, J-M. et al 1997). To monitor the enzymatic activity of the lysosomal enzymes, a cathepsin-specific substrate was added.
# First of all, a fresh rat liver was removed, weighed and immediately placed on ice in homogenization medium (0.25 M sucrose, 1 mM EDTA, 10 mM HEPES, pH7). The liver was comminuted and a change of medium was undertaken. The rat livers were homogenized with 4 times the amount of the rat liver weight at 750 rpm in a Potter (B. Braun). The homogenate was centrifuged at 1000 g for 10 min and the supernatant was filtered. In the next step, with the aid of an ultracentrifuge, the “light mitochondrial fraction” (LMF) was centrifuged out of the supernatant at 26 500 g over 20 min. Also present in the pellet apart from mitochondria are the lysosomes. The supernatant was discarded and the pellet was resuspended with 0.8 ml/g of homogenization medium.
# The sucrose was added from a 2.3 M stock solution of the particular percentage. 2.5 ml of isolated LMF were additionally added to the density stage with a sucrose content of 19%. Subsequently, the density stages were layered one on top of another in 10 ml centrifuge tubes and centrifuged at 48 500 g for 17 h. […] To monitor the lysis, the protein content of the lysed lysosomal fraction was monitored with the aid of a BCA assays (Pierce BCA protein assay kit).
# To examine the lysosomal stability of compounds RM-A and RM-B, 6 μl of a 100 μg/ml stock solution (9 acetonitrile/1 DMSO) were added to 290 μl of 90 mM citrate buffer and 300 μl of lysosomal extract and incubated at 37° C. on an Eppendorf shaker. […] For the RP-HPLC LCMS analysis, the samples were diluted with 300 μl of 10 mM ammonium acetate buffer (pH 6.8) and analysed.
compound,measurement,setting,value
"CC(C)(C)[C@H](c1cc(-c2cc(F)ccc2F)cn1Cc1ccccc1)N(CC[C@H](N)C(=O)NCCNC(=O)[C@@H](CCC(=O)O)NC(=O)CNC(=O)[C@H](CC(=O)O)SC[C@H](N)C(=O)O)C(=O)CO [Example M2, trifluoroacetic acid salt]",IC50,[1],0.467 nM
same,transport from the cell and efflux ratio (in words),[2]; Caco-2,very low level of transport from the cell and a low efflux ratio
same,Papp (B-A),"[2]; Caco-2, basal to apical, 2 hours",0.11 ×10⁻⁶ cm/s
same,Efflux ratio,"[2]; Caco-2, ratio of Papp (B-A) to Papp (A-B)",1.6
"CNC(=O)[C@H](CCN(C(=O)CO)[C@@H](c1cc(-c2cc(F)ccc2F)cn1Cc1ccccc1)C(C)(C)C)NC(=O)[C@H](CC(N)=O)NC(=O)[C@H](C)NC(=O)[C@H](C)NC(=O)Cc1ccncc1 [RM-A, N-(Pyridin-4-ylacetyl)-L-alanyl-L-alanyl-N^1-[(2S)-4-[{(1R)-1-[1-benzyl-4-(2,5-difluorophenyl)-1H-pyrrol-2-yl]-2,2-dimethylpropyl}(glycoloyl)amino]-1-(methylamino)-1-oxobutan-2-yl]-L-aspartamide]",half-life,[3],0.2 h
same,half-life at 1 µg/ml,[4],~6 h
same,extent of cleavage in the lysosomal stability assay,[4],about 80%
"CNC(=O)[C@H](CCN(C(=O)CO)[C@@H](c1cc(-c2cc(F)ccc2F)cn1Cc1ccccc1)C(C)(C)C)NC(=O)[C@H](CC(N)=O)NC(=O)Cc1ccncc1 [RM-B, N^1-[(2S)-4-[{(1R)-1-[1-Benzyl-4-(2,5-difluorophenyl)-1H-pyrrol-2-yl]-2,2-dimethylpropyl}(glycoloyl)amino]-1-(methylamino)-1-oxobutan-2-yl]-N^2-(pyridin-4-ylacetyl)-L-aspartamide]",half-life,[3],~10 h
same,extent of cleavage in the lysosomal stability assay,[4],13%
"CNC(=O)[C@H](CCN(C(=O)CO)[C@@H](c1cc(-c2cc(F)ccc2F)cn1Cc1ccccc1)C(C)(C)C)NC(=O)[C@H](CCC(N)=O)NC(=O)Cc1ccncc1 [RM-C, N^1-[(2S)-4-[{(1R)-1-[1-Benzyl-4-(2,5-difluorophenyl)-1H-pyrrol-2-yl]-2,2-dimethylpropyl}(glycoloyl)amino]-1-(methylamino)-1-oxobutan-2-yl]-N^2-(pyridin-4-ylacetyl)-L-glutamide]",cleavage by legumain (in words),[3]; rh legumain,not cleaved; also recorded: not possible to show any cleavage by legumain
